In BindingDB's records for doi:10.7270/Q2862DWJ (Nmmlsc, 2009):

target: Isoform Bcl-X(L) of Bcl-2-like protein 1 (Bcl-xL) (Homo sapiens, UniProt Q07817); test: Bcl-XL/Bim binding disruption – biochemical, dose response, multiplexed, HTS hits, confirmation (AID 2084); conditions: inactive by the depositor's call
Sequence (Q07817 whole entry G70A, canonical isoform): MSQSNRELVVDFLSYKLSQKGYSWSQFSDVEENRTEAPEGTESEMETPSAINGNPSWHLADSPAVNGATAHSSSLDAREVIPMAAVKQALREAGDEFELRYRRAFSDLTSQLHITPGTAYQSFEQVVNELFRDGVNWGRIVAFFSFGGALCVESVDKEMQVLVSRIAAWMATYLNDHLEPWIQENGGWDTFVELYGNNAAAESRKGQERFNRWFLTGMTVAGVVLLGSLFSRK

Going from `O=c1[nH]c(O)c(Cc2ccc(-c3cc(Cl)ccc3[N+](=O)[O-])o2)c(=O)[nH]1` to `Cc1ccc(-c2nc3c(c(=O)[nH]c(=O)n3Cc3ccccc3)n2C)o1` [7-methyl-8-(5-methyl-2-furanyl)-3-(phenylmethyl)purine-2,6-dione], the EC50 rises from 26.4 µM to 43.5 µM (1.6-fold).

Going from `CNC1CCC(Br)CC(C(=O)C=Cc2cccc(OC)c2OC)C1=O` (stereo not given) [4-bromo-2-[(E)-3-(2,3-dimethoxyphenyl)-1-oxoprop-2-enyl]-7-(methylamino)-1-cycloheptanone] to `COc1ccc(CCNC(=O)c2ccc3nc(-c4ccco4)c(-c4ccco4)nc3c2)cc1OC` [N-[2-(3,4-dimethoxyphenyl)ethyl]-2,3-di-2-furylquinoxaline-6-carboxamide], the EC50 falls from 45.5 µM to 18.4 µM (2.5-fold).

Work on `Clc1nc(NCc2cccnc2)nc(N2CCOCC2)n1` [MLS000121154] yielded an EC50 of 15.1 µM.
